According to patent US7067549B2, “Pyrrolidone carboxamides” (Actelion Pharmaceuticals AG, priority 2001, dated 2006):

Target: T1, mouse NPY-Y5 receptors (mNPY-Y5) (Mus musculus, UniProt O70342)
T1 construct: The full-length cDNA which contains the mouse NPY-Y5 (mNPY-Y5) receptor coding was amplified from mouse brain cDNA; expressed in transfected cells
T1 sequence (O70342 1-466): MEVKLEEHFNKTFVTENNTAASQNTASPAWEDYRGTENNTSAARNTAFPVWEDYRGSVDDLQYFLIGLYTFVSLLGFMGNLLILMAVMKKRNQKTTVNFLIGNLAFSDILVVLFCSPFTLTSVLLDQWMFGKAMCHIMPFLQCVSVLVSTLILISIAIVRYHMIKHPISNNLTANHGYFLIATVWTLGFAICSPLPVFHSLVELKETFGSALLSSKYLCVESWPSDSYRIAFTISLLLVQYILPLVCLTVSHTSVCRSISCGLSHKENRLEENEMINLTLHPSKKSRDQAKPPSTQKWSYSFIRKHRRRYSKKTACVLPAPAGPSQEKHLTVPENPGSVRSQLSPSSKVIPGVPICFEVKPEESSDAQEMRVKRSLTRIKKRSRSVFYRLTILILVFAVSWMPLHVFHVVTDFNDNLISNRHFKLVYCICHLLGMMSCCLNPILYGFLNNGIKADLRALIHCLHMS
Assay: Radioligand competition binding (125I-PYY) on membranes of HEK293 cells expressing recombinant mouse NPY-Y5 receptor
Details: displacement of 100 pM 125I-labeled PYY, 1 h at 22° C., read-out: NPY5 IC50
Text: The full-length cDNA which contains the mouse NPY-Y5 (mNPY-Y5) receptor coding was amplified from mouse brain cDNA using specific primers, which were custom-made on the basis of published sequences, and employing Pfu DNA polymerase (Stratagene). The amplification product was subcloned into a mammalian expression vector pcDNA3 using EcoRI and XhoI restriction sites. Positive clones were sequenced; one clone, which contained the published sequence, was selected for preparing stable cell clones.
Human embryonic kidney 293 (HEK293) cells were transfected with 10 μg of mNPY5 DNA using Lipofectamine reagent (Gibco BRL) in accordance with the manufacturer's instructions. Two days after the transfection, the geneticin selection (1 mg/ml) was initiated and several stable clones were isolated. One of the clones was used for further pharmacological characterization.
Human embryonic kidney cells (HEK293) which express recombinant mouse NPY-Y5 receptors (mNPY-Y5) were disrupted by being frozen/thawed three times in hypotonic Tris buffer (5 mM, pH 7.4, 1 mM MgCl2), after which they were homogenized and centrifuged at 72 000 G for 15 minutes. The precipitate was washed twice with Tris buffer (pH 7.4) containing 25 mM MgCl2, 250 mM sucrose, 0.1 mM phenylmethylsulfonyl fluoride and 0.1 mM 1,10-phenanthroline, then resuspended in the same buffer and stored in aliquots at −80° C. The protein was determined by the Lowry method using bovine serum albumin (BSA) as the standard.
The competition binding analysis was carried out in 250 μl of 25 mM Hepes buffer (pH 7.4, 2.5 mM CaCl2, 1 mM MgCl2, 1% bovine serum albumin and 0.01% sodium azide) which 5 μg of protein, 100 pM ^125I-labeled peptide YY (PYY) and 10 μl of a DMSO solution containing increasing quantities of DMSO solution containing unlabeled test compound. After a one-hour incubation at 22° C., the bound ligand was separated from the unbound ligand by means of filtration through a glass fiber filter. Nonspecific binding was determined in the presence of 1 μM unlabeled PYY. Specific binding is defined as the difference between total binding and nonspecific binding. An IC50 value is defined as the concentration of the antagonist which displaces 50% of the ^125I-labeled […]. This concentration is determined by linear regression analysis following logit/log transformation of the binding values.

| SMILES | IC50 [nM] |
| --- | --- |
| CCn1c2ccccc2c2cc(NC(=O)C3CC(=O)N(c4cccc(OC)c4)C3)ccc21 (racemic) [rac. N-(9-Ethyl-9H-carbazol-3-yl)-1-(3-methoxyphenyl)-5-oxopyrrolidine-3-carboxamide] | 20 |
| Cc1ccc(C)c(N2CC(C(=O)Nc3ccc(-c4ccccc4)cc3)CC2=O)c1 (racemic) [rac. N-(Biphenyl-4-yl)-1-(2,5-dimethylphenyl)-5-oxopyrrolidine-3-carboxamide] | 34 |
| COc1ccc(C)c(N2CC(C(=O)Nc3ccc(N(CC4CC4)c4ccccc4)cc3)CC2=O)c1 (racemic) [rac. N-[4-(Cyclopropylmethylphenylamino)phenyl]-1-(5-methoxy-2-methylphenyl)-5-oxopyrrolidine-3-carboxamide] | 34 |
| CCN(c1ccc(NC(=O)C2CC(=O)N(CCc3ccccn3)C2)cc1)c1nc(C)cc(C)n1 (racemic) [rac. N-{4-[(4,6-Dimethylpyrimidin-2-yl)ethylamino]phenyl}-5-oxo-1-(2-pyridin-2-ylethyl)pyrrolidine-3-carboxamide] | 24 |
| COc1ccc(C)c(N2CC(C(=O)Nc3ccc(Nc4nc(C)cc(C)n4)cc3)CC2=O)c1 (racemic) [rac. N-[4-(4,6-Dimethylpyrimidin-2-ylamino)phenyl]-1-(5-methoxy-2-methylphenyl)-5-oxopyrrolidine-3-carboxamide] | 26 |
| CCN(c1ccccc1)c1ccc(NC(=O)C2CC(=O)N(c3ccccc3C(C)C)C2)cc1 (racemic) [rac. N-[4-(Ethylphenylamino)phenyl]-1-(2-isopropylphenyl)-5-oxopyrrolidine-3-carboxamide] | 23 |
| CCn1c2ccccc2c2cc(NC(=O)C3CC(=O)N(c4ccc(C)cc4)C3)ccc21 (racemic) [rac. N-(9-Ethyl-9H-carbazol-3-yl)-5-oxo-1-p-tolylpyrrolidine-3-carboxamide] | 30 |
| COc1ccc(C)c(N2CC(C(=O)Nc3ccc(N(C)c4nc(C)cc(C)n4)cc3)CC2=O)c1 (racemic) [rac. N-{4-[(4,6-Dimethylpyrimidin-2-yl)methylamino]phenyl}-1-(5-methoxy-2-methylphenyl)-5-oxopyrrolidine-3-carboxamide] | 41 |

Continued, values first:

| IC50 [nM] | SMILES |
| --- | --- |
| 10 | CCN(c1ccc(NC(=O)C2CC(=O)N(c3cc(C)ccc3C)C2)cc1)C(C)C (racemic) [rac. N-[4-(Ethylisopropylamino)phenyl]-1-(2,5-dimethylphenyl)-5-oxopyrrolidine-3-carboxamide] |
| 8 | CCn1c2ccccc2c2cc(NC(=O)C3CC(=O)N(CC(O)c4ccccc4)C3)ccc21 (racemic) [rac. N-(9-Ethyl-9H-carbazol-3-yl)-1-(2-hydroxy-2-phenylethyl)-5-oxopyrrolidine-3-carboxamide] |
| 20 | CC(C)c1ccccc1N1CC(C(=O)Nc2ccc(N(C)c3ccccc3)cc2)CC1=O (racemic) [rac. N-[4-(Methylphenylamino)phenyl]-1-(2-isopropylphenyl)-5-oxopyrrolidine-3-carboxamide] |
| 34 | CC(C)c1ccccc1N1CC(C(=O)Nc2ccc(N(c3ccccc3)C(C)C)cc2)CC1=O (racemic) [rac. N-[4-(Isopropylphenylamino)phenyl]-1-(2-isopropylphenyl)-5-oxopyrrolidine-3-carboxamide] |
| 20 | CCn1c2ccccc2c2cc(NC(=O)C3CC(=O)N(Cc4ccccc4Cl)C3)ccc21 (racemic) [rac. N-(9-Ethyl-9H-carbazol-3-yl)-1-(2-chlorobenzyl)-5-oxopyrrolidine-3-carboxamide] |
| 10 | CCn1c2ccccc2c2cc(NC(=O)C3CC(=O)N(CCc4cccs4)C3)ccc21 (racemic) [rac. N-(9-Ethyl-9H-carbazol-3-yl)-5-oxo-1-(2-thiophen-2-ylethyl)pyrrolidine-3-carboxamide] |
| 10 | CCn1c2ccccc2c2cc(NC(=O)C3CC(=O)N(Cc4ccc(Cl)cc4)C3)ccc21 (racemic) [rac. N-(9-Ethyl-9H-carbazol-3-yl)-1-(4-chlorobenzyl)-5-oxopyrrolidine-3-carboxamide] |
